Bounds are passed on as bounds.

These results are taken from US11155560B2, “Substituted pyrazolo[1,5-a]pyrimidines for modulating CDK9 activity” (Kronos Bio, Inc., priority 2018, dated 2021).

T1 sequence (P50750 whole entry): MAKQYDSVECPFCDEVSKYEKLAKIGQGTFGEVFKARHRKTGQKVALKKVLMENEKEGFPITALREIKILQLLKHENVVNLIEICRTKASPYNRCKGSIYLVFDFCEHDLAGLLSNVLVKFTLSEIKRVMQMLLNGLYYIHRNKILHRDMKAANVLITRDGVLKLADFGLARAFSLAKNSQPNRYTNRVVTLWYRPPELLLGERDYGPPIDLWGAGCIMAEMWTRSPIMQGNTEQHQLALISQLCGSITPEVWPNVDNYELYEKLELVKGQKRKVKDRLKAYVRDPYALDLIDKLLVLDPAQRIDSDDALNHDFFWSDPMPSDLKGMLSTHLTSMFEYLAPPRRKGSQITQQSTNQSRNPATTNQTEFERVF
T1 sequence (O60563 whole entry partner): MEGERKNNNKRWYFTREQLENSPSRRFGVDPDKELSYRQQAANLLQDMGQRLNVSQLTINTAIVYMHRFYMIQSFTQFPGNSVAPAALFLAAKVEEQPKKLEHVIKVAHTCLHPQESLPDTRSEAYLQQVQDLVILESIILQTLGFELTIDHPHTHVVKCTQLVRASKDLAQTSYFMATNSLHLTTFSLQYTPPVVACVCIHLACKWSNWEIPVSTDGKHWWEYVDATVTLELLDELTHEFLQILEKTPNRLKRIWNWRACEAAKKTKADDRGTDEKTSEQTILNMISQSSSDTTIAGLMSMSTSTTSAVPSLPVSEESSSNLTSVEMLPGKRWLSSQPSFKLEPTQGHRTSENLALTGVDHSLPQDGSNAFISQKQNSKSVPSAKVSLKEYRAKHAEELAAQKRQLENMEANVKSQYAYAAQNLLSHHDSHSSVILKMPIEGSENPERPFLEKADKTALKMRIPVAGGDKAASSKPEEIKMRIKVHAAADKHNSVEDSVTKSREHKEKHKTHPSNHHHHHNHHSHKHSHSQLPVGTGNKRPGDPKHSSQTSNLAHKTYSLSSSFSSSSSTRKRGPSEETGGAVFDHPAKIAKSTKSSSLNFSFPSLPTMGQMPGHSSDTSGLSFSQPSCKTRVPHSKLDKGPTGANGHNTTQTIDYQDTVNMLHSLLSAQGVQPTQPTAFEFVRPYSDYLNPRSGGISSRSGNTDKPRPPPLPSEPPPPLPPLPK

One assay addresses T1, CDK9/cyclin T1 (Homo sapiens, UniProt P50750). In words: CDK9/cyclin T1 inhibition, radiometric assay. In kind it is biochemical. As to conditions: read-out: CDK9/cyclin T1 Potency Grade. The method, then: Exemplary compounds of the invention (1-34) were tested for inhibition of CDK9/cyclin T1. […] Reactions were carried out at 10 μM ATP. Data was normalized to positive and negative controls and curve fits were executed with GraphPad software and were performed where the enzyme activities at the highest concentration of compounds were less than 65%.
As to `Cc1cc(NC2CCCC2)n2nccc2n1` [Compound 1, N-cyclopentyl-5-methyl-pyrazolo[1,5-a]pyrimidin-7-amine], the IC50 was over 1000 nM. The same measure, in the same setting: next, `CC(C)c1cc(NC2CCCC2)n2nccc2n1` [Compound 2, N-cyclopentyl-5-isopropyl-pyrazolo[1,5-a]pyrimidin-7-amine]: 1 to 500 nM; `CCC(C)c1cc(NC2CCCC2)n2nccc2n1` (stereo not drawn) [Compound 3, N-cyclopentyl-5-sec-butyl-pyrazolo[1,5-a]pyrimidin-7-amine]: 1 to 500 nM. As to `Cc1cc(N[C@H]2CC[C@H](N)CC2)n2nccc2n1` [Compound 4, [4-[(5-methylpyrazolo[1,5-a]pyrimidin-4-ium-7-yl)amino]cyclohexyl]ammonium dichloride], the IC50 lay within 501 to 1000 nM.

For the molecule `c1cc2nc(C3CCCC3)cc(NC3CCCC3)n2n1` [Compound 5, N,5-dicyclopentylpyrazolo[1,5-a]pyrimidin-7-amine], the IC50 lay within 1 to 500 nM. `CCC(C)c1cc(N[C@H]2CC[C@H](N)CC2)n2nccc2n1` (stereo partly drawn) [Compound 7, [4-[(5-sec-butylpyrazolo[1,5-a]pyrimidin-4-ium-7-yl)amino]cyclohexyl]ammonium dichloride]: the IC50 is 1 to 500 nM. Take `N[C@H]1CC[C@H](Nc2cc(C3CCCC3)nc3ccnn23)CC1` [Compound 8, [4-[(5-cyclopentylpyrazolo[1,5-a]pyrimidin-4-ium-7-yl)amino]cyclohexyl]ammonium dichloride]: the IC50 fell in the range of 1 to 500 nM. For `N[C@H]1CC[C@H](Nc2cc(C3CCCC3)nc3ccnn23)C1` [Compound 9, [(1S,3S)-3-[(5-cyclopentylpyrazolo[1,5-a]pyrimidin-4-ium-7-yl)amino]cyclopentyl]ammonium dichloride], the IC50 was in the range of 1 to 500 nM.

In a further assay the target is T1, CDK9/cyclin T1. Briefly: CDK9/cyclin T1 kinase inhibition, LANCE assay. In kind it is biochemical. As to conditions: reaction time 60 minutes, 10 μM ATP, 10-dose IC50, compounds 35-126 (127-208 listed, method not stated), read-out: CDK9/cyclin T1 Potency Grade. The method, then: Exemplary compounds of the invention (35-126) were tested for inhibition of CDK9/cyclin T1 kinase. Using a LANCE assay (reaction time 60 minutes), the compounds were tested in 10-dose IC50 duplicate mode with a 3-fold serial dilution starting at 4.3 μM. […] Reactions were carried out at 10 μM ATP. Data was normalized to positive and negative controls and curve fits were analyzed with XLFIT5 as % inhibition vs. log [compound concentration] using a 4-parameter logistic model205. Fit=(A+((B−A)/(1+((C/x)^D)))); Res =(y-fit).
`CC(C)c1cc(N[C@@H]2CC[C@@H](N(O)C(N)=O)C2)n2nccc2n1` [Compound 151]: the IC50 is 1 to 500 nM. On to `N[C@H]1CC[C@H](Nc2cc(-c3ccc4c(c3)OCO4)nc3ccnn23)C1` [Compound 152], for which the IC50 lay within 1 to 500 nM. As to `CCC(CC)c1cc(N[C@H]2CC[C@H](N(C)CCOC)C2)n2nccc2n1` [Compound 153], the IC50 fell in the range of 1 to 500 nM.

`CN/C(=N/C#N)N[C@@H]1CC[C@@H](Nc2cc(C(C)C)nc3ccnn23)C1` [Compound 154]: the IC50 fell in the range of 1 to 500 nM. Regarding `CC(C)c1cc(N[C@H]2CC[C@H](N)C2)n2ncc(C#N)c2n1` [Compound 155], the IC50 was in the range of 1 to 500 nM. Same read-out and setting: next, `N[C@H]1CC[C@H](Nc2cc(N3CCCCC3)nc3ccnn23)C1` [Compound 156]: 1 to 500 nM; `CC(C)c1cc(N[C@@H]2CC[C@@H](NC(=N)N)C2)n2nccc2n1` [Compound 157]: 1 to 500 nM. In the case of `CC(C)c1cc(N[C@@H]2CC[C@@H](NC(=O)OCc3ccccc3)C2)n2ncc(Cl)c2n1` [Compound 158], the IC50 is 1 to 500 nM. Regarding `CC(C)OC(=O)N[C@@H]1CC[C@@H](Nc2cc(C(C)C)nc3c(Cl)cnn23)C1` [Compound 159], the IC50 was in the range of 501 to 1000 nM. Turning to `N[C@H]1CC[C@H](Nc2cc(-c3ccc4ccccc4c3)nc3ccnn23)C1` [Compound 160], the IC50 fell in the range of 501 to 1000 nM.

Turning to `COc1cc(C)cc(-c2cc(N[C@H]3CC[C@H](N)C3)n3nccc3n2)c1` [Compound 161], the IC50 fell in the range of 1 to 500 nM. Same read-out and setting: next, `N[C@H]1CC[C@H](Nc2cc(Nc3ccc4ccccc4c3)nc3ccnn23)C1` [Compound 162]: 1 to 500 nM; `N[C@H]1CC[C@H](Nc2cc(N3CCOCC3)nc3ccnn23)C1` [Compound 163]: 1 to 500 nM; `Cc1cccc(-c2cc(N[C@H]3CC[C@H](N)C3)n3nccc3n2)c1` [Compound 164]: 1 to 500 nM. On the same count and under the same terms, next, `COc1cc(Cl)cc(-c2cc(N[C@H]3CC[C@H](N)C3)n3nccc3n2)c1` [Compound 165]: 1 to 500 nM; `N[C@H]1CC[C@H](Nc2cc(-c3cccc(Cl)c3)nc3ccnn23)C1` [Compound 166]: 1 to 500 nM. For `COc1cc(N[C@@H]2CC[C@@H](N)C2)n2nccc2n1` [Compound 168], the IC50 lay in the range of 501 to 1000 nM.

On to `Cn1cncc1-c1cc(N[C@H]2CC[C@H](NC=O)C2)n2nccc2n1` [Compound 169], for which the IC50 lay in the range of 501 to 1000 nM. Turning to `CCN(CC)c1cc(N[C@H]2CC[C@H](N)C2)n2nccc2n1` [Compound 170], the IC50 is 1 to 500 nM. The same measure, in the same setting: next, `N[C@H]1CC[C@H](Nc2cc(Nc3cccc4ccccc34)nc3ccnn23)C1` [Compound 171]: 1 to 500 nM; `N[C@H]1CC[C@H](Nc2cc(-c3cccc4ccccc34)nc3ccnn23)C1` [Compound 172]: 1 to 500 nM; `N[C@H]1CC[C@H](Nc2cc(-c3cc(Cl)cc(Cl)c3)nc3ccnn23)C1` [Compound 173]: 1 to 500 nM.

As for `Cn1cncc1-c1cc(N[C@H]2CC[C@H](N)C2)n2nccc2n1` [Compound 174], the IC50 was in the range of 1 to 500 nM. Still for that read-out and setting: then `O=C(N[C@H]1CC[C@H](Nc2cc(C3CC3)nc3ccnn23)C1)OCc1ccccc1` [Compound 175], with over 1000 nM; and `Cc1cnn2c(N[C@@H]3CC[C@@H](NC(=O)OC(C)C)C3)cc(C(C)C)nc12` [Compound 176], with 1 to 500 nM. In the case of `CC(C)N(C)c1cc(N[C@H]2CC[C@H](N)C2)n2nccc2n1` [Compound 177], the IC50 lay within 1 to 500 nM. Still for that read-out and setting: next, `Cc1cnn2c(N[C@@H]3CC[C@@H](NC(=O)OCc4ccccc4)C3)cc(C(C)C)nc12` [Compound 178]: 1 to 500 nM; `COCCNc1cc(N[C@H]2CC[C@H](N)C2)n2nccc2n1` [Compound 179]: 501 to 1000 nM; `COC(=O)N[C@H]1CC[C@H](Nc2cc(C3CC3)nc3ccnn23)C1` [Compound 180]: over 1000 nM. Still for that read-out and setting: then `CN(CCO)c1cc(N[C@H]2CC[C@H](N)C2)n2nccc2n1` [Compound 181], with 1 to 500 nM; and `CCOc1cc(N[C@H]2CC[C@H](N)C2)n2nccc2n1` [Compound 182], with 501 to 1000 nM; and `CC(C)c1cc(N[C@H]2CC[C@H](N)C2)n2nc(N)cc2n1` [Compound 183], with over 1000 nM.

`Cc1cnn2c(N[C@H]3CC[C@H](N)C3)cc(CC(C)C)nc12` [Compound 184]: the IC50 was 1 to 500 nM. Consider `CN(Cc1ccccc1)c1cc(N[C@H]2CC[C@H](N)C2)n2nccc2n1` [Compound 188], for which the IC50 was in the range of 1 to 500 nM. In the case of `CCNc1cc(N[C@H]2CC[C@H](N)C2)n2nccc2n1` [Compound 189], the IC50 was in the range of 1 to 500 nM. Turning to `N[C@H]1CC[C@H](Nc2cc(-c3ccc4c(c3)OCO4)nc3c(Cl)cnn23)C1` [Compound 195], the IC50 was 1 to 500 nM.

On to `Cc1cc(C)cc(-c2cc(N[C@H]3CC[C@H](N)C3)n3nccc3n2)c1` [Compound 196], for which the IC50 was 1 to 500 nM. Turning to `CC(C)c1ccc(-c2cc(N[C@H]3CC[C@H](N)C3)n3nccc3n2)cc1` [Compound 199], the IC50 lay within 1 to 500 nM. For the molecule `N[C@H]1CC[C@H](Nc2cc(C3=CCCCC3)nc3ccnn23)C1` [Compound 200], the IC50 fell in the range of 1 to 500 nM. `CC(C)(C#N)c1ccc(-c2cc(N[C@H]3CC[C@H](N)C3)n3nccc3n2)cc1` [Compound 204]: the IC50 was 1 to 500 nM. Regarding `N[C@H]1CC[C@H](Nc2cc(-c3ccc(C4CC4)cc3)nc3ccnn23)C1` [Compound 205], the IC50 is 1 to 500 nM. Turning to `N[C@H]1CC[C@H](Nc2cc(C3CCCCC3)nc3ccnn23)C1` [Compound 206], the IC50 was 1 to 500 nM. On the same count and under the same terms, next, `CC1(C)CC1c1cc(N[C@H]2CC[C@H](N)C2)n2nccc2n1` (stereo partly drawn) [Compound 208]: 1 to 500 nM.
